In patent US20250353820A1, “ANTIVIRAL PYRAZOLOPYRIDINONE COMPOUNDS” (Novartis AG, priority 2019, published 2025):
Structures can show the parent of a compound that is named as a salt.

Target: human HSV DNA polymerase UL30 (Human herpesvirus 1 (strain 17) (HHV-1) (Human herpes simplex virus 1), UniProt P04293)
Assay: biochemical
Conditions: 625 pM HSV polymerase, 20 minutes at room temperature; read-out: HSV-polymerase Biochemical IC50

Cn1nc(C(=O)NCc2ccc(C#N)cc2)c2c1C(=O)N(CC1(S(=O)(=O)C3(CO)COC3)CC1)CC2 [Example 173, N-(4-Cyanobenzyl)-6-((1-((3-(hydroxymethyl)oxetan-3-yl)sulfonyl)cyclopropyl)methyl)-1-methyl-7-oxo-4,5,6,7-tetrahydro-1H-pyrazolo[3,4-c]pyridine-3-carboxamide] and Cn1nc(C(=O)NCc2ccc(C#N)cc2)c2c1C(=O)N(CC1(S(=O)(=O)C3(CN)COC3)CC1)CC2 [Example 174, 6-((1-((3-(Aminomethyl)oxetan-3-yl)sulfonyl)cyclopropyl)methyl)-N-(4-cyanobenzyl)-1-methyl-7-oxo-4,5,6,7-tetrahydro-1H-pyrazolo[3,4-c]pyridine-3-carboxamide] are within 1.5-fold of each other in IC50: 0.062 µM for the first, 0.092 µM for the second.

Cn1nc(C(=O)NCc2ccc(Cl)cc2)c2c1C(=O)N(CC1(S(=O)(=O)C(C)(CO)CO)CC1)CC2 [Example 175, N-(4-chlorobenzyl)-6-((1-((1,3-dihydroxy-2-methylpropan-2-yl)sulfonyl)cyclopropyl)methyl)-1-methyl-7-oxo-4,5,6,7-tetrahydro-1H-pyrazolo[3,4-c]pyridine-3-carboxamide] and Cn1nc(C(=O)NCc2ccc(Cl)cc2)c2c1C(=O)N(CC1(S(=O)(=O)C(C)(C)[C@@H](O)CO)CC1)CC2 [Example 190, (S)—N-(4-Chlorobenzyl)-6-((1-((3,4-dihydroxy-2-methylbutan-2-yl)sulfonyl)cyclopropyl)methyl)-1-methyl-7-oxo-4,5,6,7-tetrahydro-1H-pyrazolo[3,4-c]pyridine-3-carboxamide] are within 1.5-fold of each other in IC50: 0.027 µM for the first, 0.02 µM for the second.

COCC(C)(COC)S(=O)(=O)C1(CN2CCc3c(C(=O)NCc4ccc(C#N)cc4)nn(C)c3C2=O)CC1 [Example 179, N-(4-Cyanobenzyl)-6-((1-((1,3-dimethoxy-2-methylpropan-2-yl)sulfonyl)cyclopropyl)methyl)-1-methyl-7-oxo-4,5,6,7-tetrahydro-1H-pyrazolo[3,4-c]pyridine-3-carboxamide] and Cn1nc(C(=O)NCc2ccc(C#N)cc2)c2c1C(=O)N(CC1(S(=O)(=O)C(C)(CN)CO)CC1)CC2 (stereo not drawn) [Example 183, 6-((1-((1-Amino-3-hydroxy-2-methylpropan-2-yl)sulfonyl)cyclopropyl)methyl)-N-(4-cyanobenzyl)-1-methyl-7-oxo-4,5,6,7-tetrahydro-1H-pyrazolo[3,4-c]pyridine-3-carboxamide] are within 1.5-fold of each other in IC50: 0.061 µM for the first, 0.065 µM for the second.

Compared with Cn1nc(C(=O)NCc2ccc(Cl)cc2)c2c1C(=O)N(CC1(S(=O)(=O)C(C)(C)[C@H](O)CO)CC1)CC2 [Example 191, (R)—N-(4-Chlorobenzyl)-6-((1-((3,4-dihydroxy-2-methylbutan-2-yl)sulfonyl)cyclopropyl)methyl)-1-methyl-7-oxo-4,5,6,7-tetrahydro-1H-pyrazolo[3,4-c]pyridine-3-carboxamide], Cn1nc(C(=O)NCc2ccc(Cl)cc2)c2c1C(=O)N(CC1(S(=O)(=O)C(C)(C)[C@H](N)CO)CC1)CC2 [Example 214, (R)-6-((1-((3-Amino-4-hydroxy-2-methylbutan-2-yl)sulfonyl)cyclopropyl)methyl)-N-(4-chlorobenzyl)-1-methyl-7-oxo-4,5,6,7-tetrahydro-1H-pyrazolo[3,4-c]pyridine-3-carboxamide hydrochloride] is 2.9-fold higher in IC50: 0.011 µM for the first, 0.032 µM for the second. The first is the more potent here.

Cn1nc(C(=O)NCc2ccc(C#N)cc2)c2c1C(=O)N(CC1(S(=O)(=O)C(C)(C)[C@@H](O)CO)CC1)CC2 [Example 192, (S)—N-(4-cyanobenzyl)-6-((1-((3,4-dihydroxy-2-methylbutan-2-yl)sulfonyl)cyclopropyl)methyl)-1-methyl-7-oxo-4,5,6,7-tetrahydro-1H-pyrazolo[3,4-c]pyridine-3-carboxamide] and Cn1nc(C(=O)NCc2ccc(C#N)cc2)c2c1C(=O)N(CC1(S(=O)(=O)C(C)(C)[C@H](O)CN)CC1)CC2 [Example 198, (R)-6-((1-((4-amino-3-hydroxy-2-methylbutan-2-yl)sulfonyl)cyclopropyl)methyl)-N-(4-cyanobenzyl)-1-methyl-7-oxo-4,5,6,7-tetrahydro-1H-pyrazolo[3,4-c]pyridine-3-carboxamide] are within 1.5-fold of each other in IC50: 0.03 µM for the first, 0.023 µM for the second.

Cn1nc(C(=O)NCc2ccc(C#N)cc2)c2c1C(=O)N(CC1(S(=O)(=O)C3(C(O)CN)CC3)CC1)CC2 (stereo not drawn) [Example 208] and Cn1nc(C(=O)NCc2ccc(Cl)cc2)c2c1C(=O)N(CC1(S(=O)(=O)C3(C(O)CN)CC3)CC1)CC2 (stereo not drawn) [Example 209] are within 1.5-fold of each other in IC50: 0.022 µM for the first, 0.016 µM for the second.

Compared with Cn1nc(C(=O)NCc2ccc(C#N)cc2)c2c1C(=O)N(CC1(S(=O)(=O)C(C)(C)[C@H](N)CO)CC1)CC2 [Example 213, (R)-6-((1-((3-amino-4-hydroxy-2-methylbutan-2-yl)sulfonyl)cyclopropyl)methyl)-N-(4-cyanobenzyl)-1-methyl-7-oxo-4,5,6,7-tetrahydro-1H-pyrazolo[3,4-c]pyridine-3-carboxamide], CC(C)(CO)S(=O)(=O)C1(CN2CCc3c(C(=O)NCc4ccc(C#N)cc4)nn(CCO)c3C2=O)CC1 [Example 220] is 2.1-fold lower in IC50: 0.048 µM for the first, 0.023 µM for the second. The second is the more potent here.

N#Cc1ccc(CNC(=O)c2nn(CCO)c3c2CCN(CC2(S(=O)(=O)C4CC4)CC2)C3=O)cc1 [Example 216, N-(4-Cyanobenzyl)-6-((1-(cyclopropylsulfonyl)cyclopropyl)methyl)-1-(2-hydroxyethyl)-7-oxo-4,5,6,7-tetrahydro-1H-pyrazolo[3,4-c]pyridine-3-carboxamide] and N#Cc1ccc(CNC(=O)c2nn(CCCO)c3c2CCN(CC2(S(=O)(=O)C4CC4)CC2)C3=O)cc1 [Example 236, N-(4-Cyanobenzyl)-6-((1-(cyclopropylsulfonyl)cyclopropyl)methyl)-1-(3-hydroxypropyl)-7-oxo-4,5,6,7-tetrahydro-1H-pyrazolo[3,4-c]pyridine-3-carboxamide] are within 1.5-fold of each other in IC50: 0.069 µM for the first, 0.091 µM for the second.

Going from CC1(S(=O)(=O)C2(CN3CCc4c(C(=O)NCc5ccc(C#N)cc5)nn(CCO)c4C3=O)CC2)CC1 [Example 217] to CC1(S(=O)(=O)C2(CN3CCc4c(C(=O)NCc5ccc(C#N)cc5)nn(CCCO)c4C3=O)CC2)CC1 [Example 237, N-(4-Cyanobenzyl)-1-(3-hydroxypropyl)-6-((1-((1-methylcyclopropyl)sulfonyl)cyclopropyl)methyl)-7-oxo-4,5,6,7-tetrahydro-1H-pyrazolo[3,4-c]pyridine-3-carboxamide], the IC50 rises from 0.026 µM to 0.041 µM (1.6-fold). The first is the more potent here.

Compared with O=C(NCc1ccc(Cl)cc1)c1nn(CCO)c2c1CCN(CC1(S(=O)(=O)C3CC3)CC1)C2=O [Example 218], CS(=O)(=O)C1(CN2CCc3c(C(=O)NCc4ccc(Cl)cc4)nn(CCO)c3C2=O)CC1 [Example 219] is 8-fold higher in IC50: 0.05 µM for the first, 0.401 µM for the second.

First: CC(C)(CO)S(=O)(=O)C1(CN2CCc3c(C(=O)NCc4ccc(Cl)cc4)nn(CCO)c3C2=O)CC1 [Example 221]
Second: CC(C)(O)Cn1nc(C(=O)NCc2ccc(Cl)cc2)c2c1C(=O)N(CC1(S(C)(=O)=O)CC1)CC2 [Example 231]
The IC50 of the first is 21-fold lower: 0.013 µM for the first, 0.278 µM for the second.

CC1(S(=O)(=O)C2(CN3CCc4c(C(=O)NCc5ccc(Cl)cc5)nn(CCOCCO)c4C3=O)CC2)CC1 [Example 222, N-(4-Chlorobenzyl)-1-(2-(2-hydroxyethoxy)ethyl)-6-((1-((1-methylcyclopropyl)sulfonyl)cyclopropyl)methyl)-7-oxo-4,5,6,7-tetrahydro-1H-pyrazolo[3,4-c]pyridine-3-carboxamide] and CC1(S(=O)(=O)C2(CN3CCc4c(C(=O)NCc5ccc(Cl)cc5)nn(CCOCCN)c4C3=O)CC2)CC1 [Example 223, 1-(2-(2-aminoethoxy)ethyl)-N-(4-chlorobenzyl)-6-((1-((1-methylcyclopropyl)sulfonyl)cyclopropyl)methyl)-7-oxo-4,5,6,7-tetrahydro-1H-pyrazolo[3,4-c]pyridine-3-carboxamide] are within 1.5-fold of each other in IC50: 0.043 µM for the first, 0.035 µM for the second.

CCC(=O)Cn1nc(C(=O)NCc2ccc(C#N)cc2)c2c1C(=O)N(CC1(S(=O)(=O)C3CC3)CC1)CC2 [Example 227, N-(4-cyanobenzyl)-6-((1-(cyclopropylsulfonyl)cyclopropyl)methyl)-7-oxo-1-(2-oxobutyl)-4,5,6,7-tetrahydro-1H-pyrazolo[3,4-c]pyridine-3-carboxamide] and CC(C)(O)Cn1nc(C(=O)NCc2ccc(C#N)cc2)c2c1C(=O)N(CC1(S(=O)(=O)C3CC3)CC1)CC2 [Example 230] are within 1.5-fold of each other in IC50: 0.031 µM for the first, 0.034 µM for the second.

First: N#Cc1ccc(CNC(=O)c2nn(CC3(O)CC3)c3c2CCN(CC2(S(=O)(=O)C4CC4)CC2)C3=O)cc1 [Example 228, N-(4-Cyanobenzyl)-6-((1-(cyclopropylsulfonyl)cyclopropyl)methyl)-1-((1-hydroxycyclopropyl)methyl)-7-oxo-4,5,6,7-tetrahydro-1H-pyrazolo[3,4-c]pyridine-3-carboxamide]
Second: CC(C)(O)Cn1nc(C(=O)NCc2ccc(C#N)cc2)c2c1C(=O)N(CC1(S(=O)(=O)C3(CO)CC3)CC1)CC2 [Example 234]
The IC50 of the first is 2.9-fold higher: 0.056 µM for the first, 0.019 µM for the second.

Going from CC(C)(O)Cn1nc(C(=O)NCc2ccc(Cl)cc2)c2c1C(=O)N(CC1(S(=O)(=O)C3CC3)CC1)CC2 [Example 229, N-(4-Chlorobenzyl)-6-((1-(cyclopropylsulfonyl)cyclopropyl)methyl)-1-(2-hydroxy-2-methylpropyl)-7-oxo-4,5,6,7-tetrahydro-1H-pyrazolo[3,4-c]pyridine-3-carboxamide] to CC(C)(O)Cn1nc(C(=O)NCc2ccc(C#N)cc2)c2c1C(=O)N(CC1(S(C)(=O)=O)CC1)CC2 [Example 232], the IC50 rises from 0.031 µM to 0.339 µM (11-fold). The first is the more potent here.

Compared with CCS(=O)(=O)C1(CN2CCc3c(C(=O)NCc4ccc(C#N)cc4)nn(CC(C)(C)O)c3C2=O)CC1 [Example 233], CC(C)(O)Cn1nc(C(=O)NCc2ccc(C#N)cc2)c2c1C(=O)N(CC1(S(=O)(=O)C(C)(C)CO)CC1)CC2 [Example 235] is 9.4-fold lower in IC50: 0.15 µM for the first, 0.016 µM for the second. The second is the more potent here.

CC(C)(CO)S(=O)(=O)C1(CN2CCc3c(C(=O)NCc4ccc(C#N)cc4)nn(CCOCCBr)c3C2=O)CC1 [Example 238, 1-(2-(2-Bromoethoxy)ethyl)-N-(4-cyanobenzyl)-6-((1-((1-hydroxy-2-methylpropan-2-yl)sulfonyl)cyclopropyl)methyl)-7-oxo-4,5,6,7-tetrahydro-1H-pyrazolo[3,4-c]pyridine-3-carboxamide] was tested, and the IC50 was 0.016 µM.
